These results are taken from paper PMC12263422, “Cryo-EM structure of the human THIK-1 K2P K^+ channel reveals a lower Y gate regulated by lipids and anesthetics” (Nature Structural & Molecular Biology, 2025).

Structures are written as SMILES. Where a chain is given by its changes, count along the chain named. Where “and” joins values, the source holds several entries; their conditions need not be identical. Identical values can stand only once. Like-named read-outs stand apart in the source and are kept apart here.

Type in all cases: cell-based
In assay [1] the target is T1, THIK-1 C135A (Homo sapiens, UniProt Q9HB14, C135A).
T1 construct: expressed in transfected cells; host or cells: Xenopus oocytes (mRNA injection)
T1 sequence (Q9HB14 1-408 C135A): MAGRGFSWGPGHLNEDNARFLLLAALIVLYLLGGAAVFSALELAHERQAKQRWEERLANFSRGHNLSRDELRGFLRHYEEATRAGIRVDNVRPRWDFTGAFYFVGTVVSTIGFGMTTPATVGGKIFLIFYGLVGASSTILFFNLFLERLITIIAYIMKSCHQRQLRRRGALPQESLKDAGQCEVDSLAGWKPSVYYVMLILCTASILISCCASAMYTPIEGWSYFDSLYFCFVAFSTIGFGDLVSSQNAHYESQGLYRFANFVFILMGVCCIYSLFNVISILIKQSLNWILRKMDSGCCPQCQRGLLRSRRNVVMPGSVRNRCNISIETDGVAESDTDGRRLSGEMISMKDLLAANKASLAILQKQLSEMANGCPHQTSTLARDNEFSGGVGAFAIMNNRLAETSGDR
As to the kind of experiment: Inside-out excised patch recordings, oocytes, THIK-1 C135A mutant. Conditions: read-out: TPenA IC50. The text has this:
(§1) Human K2P13.1 THIK-1 (GenBank accession number: NM_022054) and human K2P12.1 THIK-2 (NM_022055.1) were used in this study. For functional expression studies, the respective K^+ channel subtype coding sequences were subcloned into the oocyte expression vector pSGEM or the dual-purpose expression vector pFAW[41] and verified by sequencing. All mutant channels were obtained by site-directed mutagenesis and verified by sequencing. To increase surface expression and macroscopic currents, measurements of THIK-2 channels used a mutated ER retention motif, (R11A R12A R14A R15A R16A; THIK-2*)[20]. Vector DNA was linearized with NheI or MluI, and mRNA was synthesized in vitro using the SP6 or T7 AmpliCap Max High Yield Message Maker Kit (Cellscript, USA) or HiScribe T7 ARCA mRNA Kit (New England Biolabs).
Two-electrode voltage–clamp (TEVC) studies were performed in Xenopus oocytes. All animal use conformed to the Guide for the Care and Use of Laboratory Animals (NIH Publication 85–23), and all experiments using Xenopus toads were approved by the local ethics panels. Oocytes were stored at 17 °C in ND96 recording solution composed of (in mM): 96 NaCl, 2 KCl, 1.8 CaCl2, 1 MgCl2, 5 HEPES (pH 7.5 adjusted with NaOH and HCl), supplemented with Na-pyruvate (275 mg L^–1), theophylline (90 mg L^–1) and gentamicin (50 mg L^–1). Oocytes were injected with 1 ng mRNA for WT or mutant channels, and were incubated for 24–48 h at 17 °C. Two-electrode voltage clamp recordings were then performed as previously described[42],[43]. […] Currents were recorded with an EPC10 amplifier (HEKA Electronics) and sampled at 10 kHz or higher, with filtering set to 3 kHz (–3 dB) or higher, as appropriate for sampling rate. For measurements of GPCR activation, whole-cell currents were recorded for THIK-1 in transiently transfected HEK-293 cells. […] Single-channel currents were recorded with an Axopatch 200B amplifier through a Digidata 1440A digitizer (Molecular Devices). Data were filtered at 2 kHz and recorded at a 200-kHz sampling rate with the program Clampex (Molecular Devices). […]

Assay [2] deals with T2, THIK-1 S109A (Homo sapiens, UniProt Q9HB14, S109A).
T2 construct: expressed in transfected cells; host or cells: Xenopus oocytes (mRNA injection)
The assay is described as follows: Inside-out excised patch recordings, oocytes, THIK-1 S109A mutant (lipid activation). Conditions: read-out: Linoleic acid EC50. The text has this: Supplement 41594_2025_1497_MOESM2_ESM.xlsx, sheet "ExtData_Fig_S5f" | column: Linoleic acid EC50 (µM); S109A

Assay [3] concerns the target T3, THIK-1 R87D (Homo sapiens, UniProt Q9HB14, R87D).
T3 construct: expressed in transfected cells; host or cells: Xenopus oocytes (mRNA injection)
T3 sequence (Q9HB14 1-408 R87D): T1 sequence (Q9HB14 1-408 C135A) with R87D, A135C
As to the kind of experiment: Macroscopic inside-out excised patch recordings, oocytes, THIK-1 R87D mutant.
Source text: as §1
Two-electrode voltage–clamp (TEVC) studies were performed in Xenopus oocytes. All animal use conformed to the Guide for the Care and Use of Laboratory Animals (NIH Publication 85–23), and all experiments using Xenopus toads were approved by the local ethics panels. Oocytes were stored at 17 °C in ND96 recording solution composed of (in mM): 96 NaCl, 2 KCl, 1.8 CaCl2, 1 MgCl2, 5 HEPES (pH 7.5 adjusted with NaOH and HCl), supplemented with Na-pyruvate (275 mg L^–1), theophylline (90 mg L^–1) and gentamicin (50 mg L^–1). Oocytes were injected with 1 ng mRNA for WT or mutant channels, and were incubated for 24–48 h at 17 °C. Two-electrode voltage clamp recordings were then performed as previously described[42],[43]. For macroscopic patch–clamp measurements, oocytes were obtained as described above incubated at 17 °C in a solution containing (mM): 54 NaCl, 30 KCl, 2.4 NaHCO3, 0.82 MgSO4 ×7 H2O, 0.41 CaCl2, 0.33 Ca(NO3)2 ×4 H2O and 7.5 TRIS (pH 7.4 adjusted with NaOH and HCl) for 1–4 days before use. Excised patch recordings in inside-out configuration conditions were performed at room temperature. Patch pipettes were made from thick-walled borosilicate glass GB 200TF-8P (Science Products), had resistances of 0.2–0.5 MΩ (tip diameter, 10–25 µm) and filled with a pipette solution (in mM): 120 KCl, 10 HEPES and 3.6 CaCl2 (pH 7.4 adjusted with KOH and HCl). Intracellular bath solutions and compounds were applied to the cytoplasmic side of excised patches for the various K^+ channels through a gravity flow multi-barrel pipette system. The intracellular solution had the following composition (in mM): 120 KCl, 10 HEPES, 2 EGTA and 1 pyrophosphate (pH adjusted with KOH and HCl). Currents were recorded with an EPC10 amplifier (HEKA Electronics) and sampled at 10 kHz or higher, with filtering set to 3 kHz (–3 dB) or higher, as appropriate for sampling rate. For measurements of GPCR activation, whole-cell currents were recorded for THIK-1 in transiently transfected HEK-293 cells. Cells were stimulated by a ramp protocol between −100 and +60 mV (holding potential, −80 mV). The pipette solution was composed of (in mM): 140 KCl, 2 MgCl2, 1 CaCl2, 2.5 EGTA and 10 HEPES (pH 7.3 adjusted with KOH and HCl). The extracellular bath solution had the following composition (in mM): 135 NaCl, 5 KCl, 2 MgCl2, 2 CaCl2, 10 glucose and 10 HEPES pH (pH 7.3 adjusted with NaOH and HCl). Oxotremorine M (Oxo-M) was added to extracellular bath solution to obtain the final concentration. Single-channel currents were recorded with an Axopatch 200B amplifier through a Digidata 1440A digitizer (Molecular Devices). Data were filtered at 2 kHz and recorded at a 200-kHz sampling rate with the program Clampex (Molecular Devices). Pipette solution and bath solution for cell-attached recordings contained (in mM): 140 KCl, 2 MgCl2, 1 CaCl2 and 10 HEPES (pH 7.4 adjusted with KOH and HCl). For inside-out recordings, the bath solution contained (in mM): 140 KCl, 2 MgCl2, 1 CaCl2 and 10 HEPES (pH 7.2 adjusted with KOH and HCl). All experiments were conducted at room temperature. […]

T2 sequence (Q9HB14 whole entry S109A): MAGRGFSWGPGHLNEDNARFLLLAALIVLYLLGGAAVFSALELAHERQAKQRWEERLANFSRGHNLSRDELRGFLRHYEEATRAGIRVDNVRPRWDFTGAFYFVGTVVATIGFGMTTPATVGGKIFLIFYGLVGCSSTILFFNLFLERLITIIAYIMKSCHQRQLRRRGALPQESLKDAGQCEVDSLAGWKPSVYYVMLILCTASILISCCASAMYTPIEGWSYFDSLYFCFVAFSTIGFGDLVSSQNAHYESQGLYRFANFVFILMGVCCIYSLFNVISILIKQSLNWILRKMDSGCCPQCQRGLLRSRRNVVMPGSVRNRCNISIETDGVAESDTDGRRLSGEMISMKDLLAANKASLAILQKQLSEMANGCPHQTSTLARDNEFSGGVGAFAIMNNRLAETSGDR

As usually defined, the IC50 is the concentration that gives 50% inhibition. Turning to `CCCCC[N+](CCCCC)(CCCCC)CCCCC` [TPenA, tetrapentylammonium], the IC50 in assay [1] (C135A mutant) is 1060 µM; in assay [1] (THIK-1 C135A, individual recordings), 1250 µM and 1270 µM and 1530 µM and 1180 µM and 748 µM and 1440 µM and 621 µM and 466 µM; in assay [1] (THIK-1 C135A, mean) it was 1060 µM.
The term EC50 denotes the concentration that produces a half-maximal response. On to `CCCCC/C=C\C/C=C\CCCCCCCC(=O)O` [linoleic acid], for which the EC50 in assay [2] (individual recordings) was 47.5 µM and 45.3 µM and 76.4 µM and 21.1 µM and 36.6 µM and 51 µM and 47.6 µM and 129 µM; in assay [2] (mean), 56.8 µM.
As usually defined, the inhibition is the relative decrease from the control value, in per cent. Regarding `FC(F)(F)C(Cl)Br` (centres unmarked) [halothane], in assay [3] (3.0 mM halothane, R87D, individual recordings), the “Inhibition (%)” value is 54.110% and 64.133% and 70.295% and 57.409% and 74.945% and 46.769% and 63.754% and 70.637% and 69.367% and 64.901% and 58.344% and 70.045% and 57.366% and 63.096% and 56.800%. In assay [3] (3.0 mM halothane, R87D, mean), this compound registered an inhibition at 3000 µM of 62.8%. The same compound displayed an inhibition at 152 µM in assay [3] (THIK-1 R87D, 0.152 mM halothane) of 14.3%. In assay [3] (THIK-1 R87D, 0.304 mM halothane), this compound gave an inhibition at 304 µM of 26%. The same compound displayed an inhibition at 1520 µM in assay [3] (THIK-1 R87D, 1.52 mM halothane) of 53.8%. This compound also gave an inhibition at 15200 µM in assay [3] (THIK-1 R87D, 15.2 mM halothane) of 84.1%.
